Laboratory results taken from patent US5552402A, “Five-membered heteroaromatic compounds as 5-HT receptor agonists” (Merck, Sharp & Dohme Ltd., priority 1994, dated 1996).
Where a name gives a salt, the structure may show the parent alone.

Target: T1, 5-HT1 -like receptor (Oryctolagus cuniculus, UniProt P49144)
T1 construct: contraction of the saphenous vein of New Zealand White rabbits; from tissue; host or cells: saphenous vein of New Zealand White rabbits
Experiment: Agonist activity at 5-HT1-like receptor: contraction of the saphenous vein of New Zealand White rabbits
Settings: rabbit saphenous vein; from plots of percentage 5-HT (1 μM) response against concentration of agonist; read-out: EC50 (agonist potency, contraction of saphenous vein)
Method: The activity of test compounds as agonists of the 5-HT1 -like receptor was measured in terms of their ability to mediate contraction of the saphenous vein of New Zealand White rabbits, using the procedure described in Arch. Pharm., 1990, 342, 111. Agonist potencies were calculated as EC50 values, from plots of percentage 5-HT (1 μM) response against the concentration of the agonist.

T1 sequence (P49144 whole entry): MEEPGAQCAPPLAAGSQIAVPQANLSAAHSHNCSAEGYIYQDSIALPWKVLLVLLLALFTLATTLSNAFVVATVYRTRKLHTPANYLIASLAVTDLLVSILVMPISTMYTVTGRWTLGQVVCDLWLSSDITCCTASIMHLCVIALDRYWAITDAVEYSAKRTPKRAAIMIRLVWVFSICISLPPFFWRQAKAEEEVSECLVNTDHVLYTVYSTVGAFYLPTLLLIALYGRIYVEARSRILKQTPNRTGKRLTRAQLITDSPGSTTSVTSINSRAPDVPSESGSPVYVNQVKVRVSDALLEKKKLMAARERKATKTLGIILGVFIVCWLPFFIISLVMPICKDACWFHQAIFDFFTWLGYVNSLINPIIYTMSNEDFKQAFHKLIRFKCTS

Row | EC50 [µM] | Compound
1 | < 5 | c1cc2[nH]cc(CCCN3CCNCC3)c2cc1-n1cnnc1 [Example 4, 1-(3-[5-(1,2,4-Triazol-4-yl)-1H-indol-3-yl]propyl)-4-(H)-piperazine. 3.5 Hydrogen Oxalate]
2 | < 5 | CN1CCN(CCCc2c[nH]c3ccc(-n4cnnc4)cc23)CC1 [Example 5, 1-(3-[5-(1,2,4-Triazol-4-yl)-1H-indol-3-yl]propyl)-4-(methyl)piperazine. 3.5 Hydrogen Oxalate Monohydrate]
